Results as given in ChEMBL document CHEMBL4190187, “Discovery of pyrazolopyrimidine derivatives as novel inhibitors of ataxia telangiectasia and rad3 related protein (ATR)” (Bioorg Med Chem Lett, 2017).

Key:
[1] = target: Phosphatidylinositol 3-kinase C2 domain-containing subunit gamma (Homo sapiens) (UniProt O75747); assay: Inhibition of recombinant human PI3KC2gamma (468 to 1203 residues) at 1 uM phosphatidylinositol/phosphatidylserine as substrate after 40 mins in presence of [gamma-33P]ATP by scintillation counting method
[2] = target: Insulin receptor-related protein (Homo sapiens) (UniProt P14616); assay: Inhibition of recombinant human IRR (943 to 1266 residues) at 1 uM using myelin basic protein as substrate after 40 mins in presence of [gamma-33P]ATP by scintillation counting method
[3] = target: Dual specificity mitogen-activated protein kinase kinase 4 (Mus musculus) (UniProt P47809); assay: Inhibition of recombinant mouse MKK4 (34 to end residues) at 1 uM using inactive JNK1a1 as substrate after 40 mins in presence of [gamma-33P]ATP by scintillation counting method
[4] = target: Cyclin-dependent kinase 2/cyclin E1 (Homo sapiens) (UniProt P24864+P24941); assay: Inhibition of recombinant full-length human CDK2/Cyclin E at 1 uM using histone H1 as substrate after 40 mins in presence of [gamma-33P]ATP by scintillation counting method; assay type: protein-complex assay
[5] = tested on: Ribosomal protein S6 kinase beta-1 (Homo sapiens), P23443 [T412E]; assay: Inhibition of recombinant human p70S6K T412E mutant (1 to 421 residues) at 1 uM using KKRNRTLTV as substrate after 40 mins in presence of [gamma-33P]ATP by scintillation counting method
[6] = target: PI3K p110 beta/p85 alpha (Homo sapiens) (UniProt P27986+P42338); assay: Inhibition of recombinant full-length human p110b/p85a at 1 uM using phosphatidylinositol 4,5-bisphosphate as substrate after 40 mins in presence of [gamma-33P]ATP by scintillation counting method; assay type: protein-complex assay
[7] = target: SNF-related serine/threonine-protein kinase (Homo sapiens) (UniProt Q9NRH2); assay: Inhibition of recombinant human SNRK (1 to 505 residues) at 1 uM using KKLRRTLSFAEPG as substrate after 40 mins in presence of [gamma-33P]ATP by scintillation counting method
[8] = target: Serine/threonine-protein kinase MRCK beta (Homo sapiens) (UniProt Q9Y5S2); assay: Inhibition of recombinant human MRCKbeta (1 to 473 residues) at 1 uM using KKRNRTLTV as substrate after 40 mins in presence of [gamma-33P]ATP by scintillation counting method
[9] = target: Serine/threonine-protein kinase 32B (Homo sapiens) (UniProt Q9NY57); assay: Inhibition of recombinant full-length human STK32B at 1 uM using casein as substrate after 120 mins in presence of [gamma-33P]ATP by scintillation counting method
[10] = tested on: Hepatocyte growth factor receptor (Homo sapiens), P08581 [Y1248C]; assay: Inhibition of recombinant human Met Y1248C mutant (974 to end residues) at 1 uM using KKKGQEEEYVFIE as substrate after 40 mins in presence of [gamma-33P]ATP by scintillation counting method
[11] = target: Tyrosine-protein kinase CSK (Homo sapiens) (UniProt P41240); assay: Inhibition of recombinant full-length human CSK at 1 uM using poly(Glu,Tyr) 4:1 as substrate after 40 mins in presence of [gamma-33P]ATP by scintillation counting method
[12] = target: Maternal embryonic leucine zipper kinase (Homo sapiens) (UniProt Q14680); assay: Inhibition of recombinant human MELK (1 to 340 residues) at 1 uM using KKLNRTLSFAEPG as substrate after 40 mins in presence of [gamma-33P]ATP by scintillation counting method
[13] = target: Inhibitor of nuclear factor kappa-B kinase subunit beta (Homo sapiens) (UniProt O14920); assay: Inhibition of recombinant full-length human IKKbeta at 1 uM using peptide as substrate after 40 mins in presence of [gamma-33P]ATP by scintillation counting method
[14] = target: Mitogen-activated protein kinase kinase kinase 3 (Homo sapiens) (UniProt Q99759); assay: Inhibition of recombinant full-length human MEKK3 at 1 uM using MBP as substrate after 40 mins in presence of [gamma-33P]ATP by scintillation counting method
[15] = target: Protein kinase C beta type (Homo sapiens) (UniProt P05771); assay: Inhibition of recombinant human PKCbeta2 (2 to end residues) at 1 uM using histone H1 as substrate after 40 mins in presence of [gamma-33P]ATP by scintillation counting method
[16] = target: Wee1-like protein kinase (Homo sapiens) (UniProt P30291); assay: Inhibition of recombinant human Wee1 (214 to end residues) at 1 uM using LSNLYHQGKFLQTFCGSPLYRRR as substrate after 40 mins in presence of [gamma-33P]ATP by scintillation counting method
[17] = target: Receptor-interacting serine/threonine-protein kinase 2 (Homo sapiens) (UniProt O43353); assay: Inhibition of recombinant human RIPK2 (1 to 299 residues) at 1 uM using myelin basic protein as substrate after 120 mins in presence of [gamma-33P]ATP by scintillation counting method
[18] = target: Phosphatidylinositol 4-phosphate 5-kinase type-1 gamma (Homo sapiens) (UniProt O60331); assay: Inhibition of recombinant full-length human PIP5K1gamma at 1 uM using phosphatidylinositol 4-phosphate/phosphatidylserine as substrate after 40 mins in presence of [gamma-33P]ATP by scintillation counting method
[19] = target: PI3K p110 alpha/p85 alpha (Mus musculus) (UniProt P26450+P42337); assay: Inhibition of recombinant full-length mouse p110a E542K mutant/p85a at 1 uM using phosphatidylinositol 4,5-bisphosphate as substrate after 40 mins in presence of [gamma-33P]ATP by scintillation counting method; assay type: protein-complex assay
[20] = tested on: Hepatocyte growth factor receptor (Homo sapiens), P08581 [D1246H]; assay: Inhibition of recombinant human Met D1246H mutant (974 to end residues) at 1 uM using KKKGQEEEYVFIE as substrate after 40 mins in presence of [gamma-33P]ATP by scintillation counting method
Homo sapiens = organism: Homo sapiens; assay: Inhibition of recombinant full-length human p110a/recombinant p65a (1 to 571 residues) at 1 uM using phosphatidylinositol 4,5-bisphosphate as substrate after 40 mins in presence of [gamma-33P]ATP by scintillation counting method
[21] = target: Calcium/calmodulin-dependent protein kinase type II subunit gamma (Homo sapiens) (UniProt Q13555); assay: Inhibition of recombinant human CAMK2gamma (1 to 330 residues) at 1 uM using […] after 40 mins in presence of [gamma-33P]ATP by scintillation counting method
[22] = target: Macrophage colony-stimulating factor 1 receptor (Homo sapiens) (UniProt P07333); assay: Inhibition of recombinant human Fms (538 to end residues) at 1 uM using KKKSPGEYVNIEFG as substrate after 40 mins in presence of [gamma-33P]ATP by scintillation counting method
[23] = target: Serine/threonine-protein kinase SIK1 (Homo sapiens) (UniProt P57059); assay: Inhibition of recombinant human SIK (1 to 281 residues) at 1 uM using AMARAASAAALARRR as substrate after 40 mins in presence of [gamma-33P]ATP by scintillation counting method

Sequence of Maternal embryonic leucine zipper kinase (Homo sapiens) (Q14680 whole entry, looked up, the tested form may be a part): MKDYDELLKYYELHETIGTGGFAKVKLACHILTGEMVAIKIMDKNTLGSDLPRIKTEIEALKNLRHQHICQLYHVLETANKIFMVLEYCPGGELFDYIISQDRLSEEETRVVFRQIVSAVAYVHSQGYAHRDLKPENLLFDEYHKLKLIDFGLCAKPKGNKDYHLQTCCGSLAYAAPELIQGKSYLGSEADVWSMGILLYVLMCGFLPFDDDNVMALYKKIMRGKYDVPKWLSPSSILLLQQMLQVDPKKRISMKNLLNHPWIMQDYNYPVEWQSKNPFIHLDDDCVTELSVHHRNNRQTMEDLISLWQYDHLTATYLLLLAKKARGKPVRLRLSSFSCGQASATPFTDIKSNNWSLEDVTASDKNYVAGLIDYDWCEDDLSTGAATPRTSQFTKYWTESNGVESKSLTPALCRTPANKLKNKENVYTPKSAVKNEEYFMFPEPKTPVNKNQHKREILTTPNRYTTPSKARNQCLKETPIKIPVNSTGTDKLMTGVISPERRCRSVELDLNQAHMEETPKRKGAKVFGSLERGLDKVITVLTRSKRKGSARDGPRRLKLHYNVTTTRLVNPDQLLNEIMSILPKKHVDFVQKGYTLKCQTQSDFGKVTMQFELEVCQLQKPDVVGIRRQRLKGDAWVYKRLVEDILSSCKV
Sequence of Serine/threonine-protein kinase 32B (Homo sapiens) (Q9NY57 whole entry): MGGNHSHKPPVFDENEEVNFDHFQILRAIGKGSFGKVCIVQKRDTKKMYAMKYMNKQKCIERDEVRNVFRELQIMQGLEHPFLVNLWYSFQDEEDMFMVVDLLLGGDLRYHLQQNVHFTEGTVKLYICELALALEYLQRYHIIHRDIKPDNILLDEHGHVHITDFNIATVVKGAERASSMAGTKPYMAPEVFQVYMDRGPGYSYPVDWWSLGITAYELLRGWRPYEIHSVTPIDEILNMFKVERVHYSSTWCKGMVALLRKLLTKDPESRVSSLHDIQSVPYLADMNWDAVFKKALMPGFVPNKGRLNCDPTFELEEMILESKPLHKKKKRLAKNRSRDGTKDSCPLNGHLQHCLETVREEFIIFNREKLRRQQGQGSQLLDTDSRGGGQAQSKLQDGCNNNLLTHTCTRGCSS
Sequence of Inhibitor of nuclear factor kappa-B kinase subunit beta (Homo sapiens) (O14920 whole entry): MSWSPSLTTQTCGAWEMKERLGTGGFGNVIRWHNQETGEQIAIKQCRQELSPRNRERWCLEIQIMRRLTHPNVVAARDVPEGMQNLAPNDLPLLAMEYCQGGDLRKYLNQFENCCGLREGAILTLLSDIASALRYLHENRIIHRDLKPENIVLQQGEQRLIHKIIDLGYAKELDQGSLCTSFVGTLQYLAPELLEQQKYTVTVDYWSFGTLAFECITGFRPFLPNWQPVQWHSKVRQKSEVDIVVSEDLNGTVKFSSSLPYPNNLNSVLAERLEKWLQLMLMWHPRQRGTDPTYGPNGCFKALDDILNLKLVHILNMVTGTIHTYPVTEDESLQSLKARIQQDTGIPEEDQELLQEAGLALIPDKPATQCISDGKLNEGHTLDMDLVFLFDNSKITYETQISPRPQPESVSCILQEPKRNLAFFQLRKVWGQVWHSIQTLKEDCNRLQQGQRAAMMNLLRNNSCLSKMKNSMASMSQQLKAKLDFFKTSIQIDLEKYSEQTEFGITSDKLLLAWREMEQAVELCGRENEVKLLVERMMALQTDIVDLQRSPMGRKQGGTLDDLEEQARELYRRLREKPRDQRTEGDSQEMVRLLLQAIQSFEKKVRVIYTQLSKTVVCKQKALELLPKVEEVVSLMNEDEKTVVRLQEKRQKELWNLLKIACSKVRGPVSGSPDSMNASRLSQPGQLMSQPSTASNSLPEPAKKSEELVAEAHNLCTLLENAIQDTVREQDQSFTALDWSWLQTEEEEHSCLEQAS
Sequence of Wee1-like protein kinase (Homo sapiens) (P30291 whole entry, looked up, the tested form may be a part): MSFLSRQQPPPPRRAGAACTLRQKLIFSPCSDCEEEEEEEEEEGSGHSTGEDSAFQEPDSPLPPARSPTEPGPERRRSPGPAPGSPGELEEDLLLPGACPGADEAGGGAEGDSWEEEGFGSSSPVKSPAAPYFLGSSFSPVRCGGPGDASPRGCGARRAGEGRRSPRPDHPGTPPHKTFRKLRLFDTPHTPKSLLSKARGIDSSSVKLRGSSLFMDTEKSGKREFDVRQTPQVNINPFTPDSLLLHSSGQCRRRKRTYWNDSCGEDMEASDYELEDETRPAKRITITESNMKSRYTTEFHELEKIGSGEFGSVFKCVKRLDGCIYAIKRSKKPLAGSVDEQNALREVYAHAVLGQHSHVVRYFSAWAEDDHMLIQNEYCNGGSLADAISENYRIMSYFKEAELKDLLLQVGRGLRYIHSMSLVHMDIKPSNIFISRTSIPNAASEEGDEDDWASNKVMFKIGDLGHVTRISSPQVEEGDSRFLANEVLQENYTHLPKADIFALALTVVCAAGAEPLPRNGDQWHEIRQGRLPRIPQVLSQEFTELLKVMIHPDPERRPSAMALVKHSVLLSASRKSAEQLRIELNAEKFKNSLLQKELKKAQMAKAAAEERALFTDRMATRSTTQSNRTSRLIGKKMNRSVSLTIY
Sequence of Serine/threonine-protein kinase MRCK beta (Homo sapiens) (Q9Y5S2 whole entry, the tested form may be a part): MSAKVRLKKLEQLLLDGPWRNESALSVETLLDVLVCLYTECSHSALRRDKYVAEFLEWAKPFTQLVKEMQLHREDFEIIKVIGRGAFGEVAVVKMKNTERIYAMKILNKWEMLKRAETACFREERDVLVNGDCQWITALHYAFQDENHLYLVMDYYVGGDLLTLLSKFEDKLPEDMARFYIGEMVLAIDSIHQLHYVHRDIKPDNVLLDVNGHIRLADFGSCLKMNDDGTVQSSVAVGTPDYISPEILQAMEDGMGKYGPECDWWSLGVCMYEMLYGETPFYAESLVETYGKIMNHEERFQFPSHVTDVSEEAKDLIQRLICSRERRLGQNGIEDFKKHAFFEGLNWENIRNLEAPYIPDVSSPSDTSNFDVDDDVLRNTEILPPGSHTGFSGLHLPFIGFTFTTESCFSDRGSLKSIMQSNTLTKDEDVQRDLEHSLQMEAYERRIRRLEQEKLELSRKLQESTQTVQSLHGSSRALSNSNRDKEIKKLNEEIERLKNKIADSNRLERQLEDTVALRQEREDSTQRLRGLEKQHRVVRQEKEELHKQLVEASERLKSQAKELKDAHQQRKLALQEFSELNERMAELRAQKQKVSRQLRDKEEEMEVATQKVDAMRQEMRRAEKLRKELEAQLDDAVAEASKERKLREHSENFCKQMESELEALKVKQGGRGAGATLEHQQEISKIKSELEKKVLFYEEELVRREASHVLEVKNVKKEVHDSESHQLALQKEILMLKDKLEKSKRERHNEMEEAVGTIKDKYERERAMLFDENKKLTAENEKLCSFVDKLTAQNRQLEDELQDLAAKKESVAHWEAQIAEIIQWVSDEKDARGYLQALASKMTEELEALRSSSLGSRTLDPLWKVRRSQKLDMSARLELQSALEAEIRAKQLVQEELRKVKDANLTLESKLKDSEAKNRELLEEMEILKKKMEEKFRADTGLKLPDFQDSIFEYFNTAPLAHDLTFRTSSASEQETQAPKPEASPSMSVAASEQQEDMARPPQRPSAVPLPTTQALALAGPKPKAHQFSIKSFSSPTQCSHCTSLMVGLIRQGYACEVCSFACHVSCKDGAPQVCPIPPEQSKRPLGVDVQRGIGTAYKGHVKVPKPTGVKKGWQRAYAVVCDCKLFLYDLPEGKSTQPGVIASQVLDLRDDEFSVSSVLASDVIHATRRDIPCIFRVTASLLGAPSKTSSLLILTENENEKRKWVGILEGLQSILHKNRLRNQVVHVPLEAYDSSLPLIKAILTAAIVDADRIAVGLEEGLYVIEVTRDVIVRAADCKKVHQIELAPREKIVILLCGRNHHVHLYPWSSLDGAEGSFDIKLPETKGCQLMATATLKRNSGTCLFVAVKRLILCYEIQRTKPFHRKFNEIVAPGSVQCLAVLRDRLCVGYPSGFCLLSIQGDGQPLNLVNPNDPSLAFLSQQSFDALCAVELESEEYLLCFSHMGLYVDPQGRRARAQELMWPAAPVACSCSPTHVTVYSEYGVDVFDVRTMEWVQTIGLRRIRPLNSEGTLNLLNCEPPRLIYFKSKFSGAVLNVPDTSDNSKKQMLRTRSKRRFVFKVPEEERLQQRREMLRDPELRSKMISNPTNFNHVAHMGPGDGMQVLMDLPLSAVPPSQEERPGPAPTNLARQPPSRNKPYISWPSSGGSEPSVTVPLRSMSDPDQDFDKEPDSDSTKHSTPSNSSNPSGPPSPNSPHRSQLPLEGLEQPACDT
Sequence of Tyrosine-protein kinase CSK (Homo sapiens) (P41240 2-450 limits assumed): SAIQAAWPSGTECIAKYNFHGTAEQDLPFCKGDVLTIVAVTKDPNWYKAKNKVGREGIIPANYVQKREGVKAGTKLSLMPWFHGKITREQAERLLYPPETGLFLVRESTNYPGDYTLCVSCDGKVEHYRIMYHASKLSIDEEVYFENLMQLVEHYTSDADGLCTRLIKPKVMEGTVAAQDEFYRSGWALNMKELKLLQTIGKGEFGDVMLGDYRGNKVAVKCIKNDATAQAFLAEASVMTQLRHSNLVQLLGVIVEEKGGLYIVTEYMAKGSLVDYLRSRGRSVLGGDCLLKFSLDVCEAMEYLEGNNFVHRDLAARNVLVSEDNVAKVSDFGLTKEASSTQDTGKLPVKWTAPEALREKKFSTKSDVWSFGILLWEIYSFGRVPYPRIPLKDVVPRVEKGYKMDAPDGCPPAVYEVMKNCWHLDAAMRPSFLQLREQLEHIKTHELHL
Sequence of Dual specificity mitogen-activated protein kinase kinase 4 (Mus musculus) (P47809 whole entry): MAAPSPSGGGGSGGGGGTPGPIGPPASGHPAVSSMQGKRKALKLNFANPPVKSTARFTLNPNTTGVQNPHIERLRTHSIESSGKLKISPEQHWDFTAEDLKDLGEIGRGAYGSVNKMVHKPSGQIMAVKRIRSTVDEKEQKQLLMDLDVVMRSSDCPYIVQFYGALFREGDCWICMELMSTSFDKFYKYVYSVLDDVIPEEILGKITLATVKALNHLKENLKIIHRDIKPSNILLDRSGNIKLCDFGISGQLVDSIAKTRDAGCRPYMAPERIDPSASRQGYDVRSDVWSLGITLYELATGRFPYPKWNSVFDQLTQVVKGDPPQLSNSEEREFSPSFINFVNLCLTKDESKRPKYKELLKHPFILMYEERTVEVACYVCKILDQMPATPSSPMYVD

SMILES: CS(=O)(=O)c1ccc(-n2nc(-c3cnc4[nH]ccc4c3)c3c(N)ncnc32)cc1
- inhibition [1]: 15%
- inhibition [2]: -7%
- inhibition [3]: 10%
- inhibition [4]: 3%
- inhibition [5]: -2%
- inhibition [6]: 0%
- inhibition [7]: -6%
- inhibition [8]: -4%
- inhibition [9]: 7%
- inhibition [10]: 3%
- inhibition [11]: 3%
- inhibition [12]: 28%
- inhibition [13]: -3%
- inhibition [14]: 9%
- inhibition [15]: -4%
- inhibition [16]: 1%
- inhibition [17]: 70%
- inhibition [18]: 3%
- inhibition [19]: 11%
- inhibition [20]: 1%
- inhibition (Homo sapiens): 8%
- inhibition [21]: 6%
- inhibition [22]: 76%
- inhibition [23]: 35%
